Laboratory results: article PMC10980815, “Cell surface patching via CXCR4-targeted nanothreads for cancer metastasis inhibition” (Nature Communications, 2024)
“And” between values parts separate entries of the source, which are not always exact repeats. Equal values may be shown once. Ends that are not written are not given here. HPMA copolymer = HPMA copolymer made by RAFT copolymerization of HPMA with N-(3-aminopropyl)methacrylamide (APMA), bearing maleimide groups for grafting

Assays:
[1] = test system: 4T1 cells; experiment: Label-free proteomics analysis; type: cell-based, murine; details: Fig. 4f proteomics heatmap value
Method: For proteomics analysis, 4T1 cells (5 × 10^5 cells) were seeded in 12-well plates (NEST Biotechnology). […] Cell samples were submitted for label-free proteomics analysis (Shanghai Omics-space Biotech Co., Ltd., Shanghai, China). The analysis included protein extraction, protein digestion, LC − MS/MS detection (Thermo Scientific Orbitrap-Fusion Lumos), protein quantitation and identification (MaxQuant 1.5.5.1), and bioinformatics analysis.

[2] = test system: TGF-β; experiment: TGF-β ELISA (intra-tumoral, serum, pulmonary); type: in vivo, female BALB/c mice; set-up: Pulmonary TGF-β: unit not given beside the values; Intratumoral TGF-β / Systemic TGF-β: unit not given here; details: for Systemic TGF-β: serum
Method: (§1) 4T1 cells (1 × 10^6 cells) were injected into the third mammary fat pad of female BALB/c mice (6–8-week). […] On day 28, blood samples, lungs and tumors were harvested.
(§2) To explore the “seed-soil” crosstalk, the serum, intra-tumoral, and pulmonary concentration of LOX was determined using enzyme-linked immunosorbent assay kits (CSB-EL013041MO, CUSABIO, https://www.cusabio.com/) according to the manufacturer’s instructions. The serum, intra-tumoral, and pulmonary concentration of TGF-β was determined using mouse TGF-β ELISA Kit (Cat No.: HB1328-Mu). The formation of PMN was investigated through lung slices subjected to immunofluorescent staining of LOX, E-cadherin, and S100A8. For immunofluorescent staining of E-cadherin, Lung slices were stained with CoraLite® Plus 647 anti-mouse CD324 (E-cadherin, 1:300 dilution). For immunofluorescent staining of LOX and S100A8, Lung slices were separately stained with anti-LOX recombinant rabbit monoclonal antibody (1:500 dilution) or S100-A8 / MRP8 rabbit pAb (1:500 dilution), followed by staining with goat anti-rabbit IgG H&L Alexa Fluor® 647 (1:1000 dilution), respectively. Single-cell suspensions of lungs were analyzed using flow cytometry to assess BMDC (CD11b^+Gr1^+) with PE anti-mouse/human CD11b antibody (1:300 dilution) and FITC anti-mouse Ly-6G/Ly-6C (Gr-1) antibody (1:300 dilution). Chemokine concentrations in lungs were determined using a mouse CXCL12 ELISA kit.

[3] = test system: pulmonary CD11b+Gr1+ BMDCs; experiment: Pulmonary BMDCs (CD11b+Gr1+) by flow cytometry; type: in vivo, female BALB/c mice
Method: as §1, §2

[4] = test system: 4T1 cells; experiment: Transwell migration assay; type: cell-based, murine; details: stimulated 4T1 cells; individual replicates, n = 3
Method: (§3) Wound healing assay and transwell migration and invasion assay were conducted to investigate in vitro metastasis inhibition. For the wound healing assay, 4T1 cells (5 × 10^5 cells) were cultured in 12-well plates (NEST Biotechnology) as monolayer with more than 90% coverage. Sterile 200 μL pipette tips were used to scrape off the cells, generating a linear cell-free area in the middle of the well. Subsequently, cells were washed by PBS to remove debris. In the stimulated group, 4T1 cells were stimulated with CXCL12 (100 ng/mL) for 1 h. […] In the P-BS-CM1 → P-CM2 group, 4T1 cells underwent consecutive treatment with P-BS-CM1 for 1 h and P-CM2 for 1 h before CXCL12 stimulation (1 mg/mL BS equivalence, CM1:CM2, 1:1 mol%). Images of the wound were recorded by a microscope at 0 h and 24 h after CXCL12 stimulation, and the wound healing rate was calculated using Image J software. For the transwell migration and invasion assay, 4T1 cells (5 × 10^5 cells) were seeded in the non-coated upper chamber (Millipore, 8 μm) or GelNest™ matrigel (NEST Biotechnology) pre-coated upper chamber. The cells underwent the same treatment conditions as wound healing assay. After 24 h of treatment, migrated or invaded cells across the membrane were stained with 0.1% crystal violet, imaged by microscope, and quantified by absorbance at 570 nm after dissolution.

[5] = test system: 4T1 cells; experiment: Transwell invasion assay (matrigel); type: cell-based, murine
Method: as §3

[6] = Hydrodynamic size / size distribution by dynamic light scattering; type: physicochemical; details: Malvern Zetasizer Nano ZS90, mean ± SD
Method: The average molecular weight (Mw) and polydispersity (PDI) of the HPMA copolymer conjugates were determined by gel permeation chromatography (GPC) on an AKTA purifier equipment with a Superose 6 10/300 GL analytical column (GE Healthcare, USA) and a differential refraction detector (KNAUER, 2300, Germany). Hydrodynamic sizes and zeta potentials were determined using a Malvern Zetasizer Nano ZS90 equipment (Malvern Instruments Ltd, Malvern, UK). The contents of BS, CM1, and CM2 were determined using a bicinchoninic acid (BCA) protein assay. The PS concentration was determined by ultraviolet-visible (UV-Vis) spectroscopy at its characteristic absorbance peak (660 nm).
To investigate the coiled-coil assembly, varying CM1-to-CM2 ratios (3:1, 1:1, and 1:3) of P-BS-CM1 and P-CM2 were mixed in 10 mM PBS (pH 7.4) at 25 °C for 10 min. The total polymer concentration was kept constant at 10 mg/mL. Circular dichroism spectra, size distribution, and rheological properties of P-BS-CM1, P-CM2, and their mixture were measured. The surface morphology of P-BS-CM1 and the mixture (P-BS-CM1 + P-CM2) was observed using scanning electron microscopy. Additionally, for the FRET assay, CM1-to-CM2 equimolar of P-BS-CM1-Cy5 and P-CM2-Cy3 were mixed in 10 mM PBS (pH 7.4) at 25 °C for 10 min. Fluorescent spectra of P-BS-CM1-Cy5, P-CM2-Cy3, and the mixture (P-BS-CM1-Cy5+P-CM2-Cy3) were recorded at the Cy3 excitation wavelength of 550 nm.

[7] = i.v. days 7, 14, 21 (5 mg/kg BS equivalence; P-CM2 24 h later), analysis day 28, mouse 1 of 5

Substance | PKA C-alpha ([1]; replicate 1) | VDAC3 ([1]; replicate 1) | PKA C-alpha ([1]; replicate 2) | VDAC3 ([1]; replicate 2) | PKA C-alpha ([1]; replicate 3) | VDAC3 ([1]; replicate 3) | Intratumoral TGF-β ([2]; replicate 1) | Pulmonary TGF-β ([2]; replicate 1) | Intratumoral TGF-β ([2]; replicate 2) | Pulmonary TGF-β ([2]; replicate 2) | Intratumoral TGF-β ([2]; replicate 3) | Pulmonary TGF-β ([2]; replicate 3) | Intratumoral TGF-β ([2]; replicate 4) | Pulmonary TGF-β ([2]; replicate 4) | Intratumoral TGF-β ([2]; replicate 5) | Pulmonary TGF-β ([2]; replicate 5) | Systemic TGF-β ([2]; replicate 1) | Systemic TGF-β ([2]; replicate 2) | Systemic TGF-β ([2]; replicate 3) | Systemic TGF-β ([2]; replicate 4) | further results
LGASWHRPDKCCLGYQKRPLPA [Free BS] | -0.6179 | 0.5272 | 0.3837 | -0.8599 | -0.4642 | 0.1524 | 20.98 | 9.12 | 26.43 | 10.3 | 26.11 | 11.1 | 22.3 | 10.7 | 20.45 | 8.9 | 321.2 | 324.5 | 372.1 | 355.2 | Systemic TGF-β ([2]; replicate 5): 352; Pulmonary CD11b+Gr1+ BMDCs (%) [3, 7]: 31.8%; Pulmonary CD11b+Gr1+ BMDCs (%) ([3]; same, mouse 2 of 5): 39.87%; Pulmonary CD11b+Gr1+ BMDCs (%) ([3]; same, mouse 3 of 5): 35.6%; Pulmonary CD11b+Gr1+ BMDCs (%) ([3]; same, mouse 4 of 5): 41%; Pulmonary CD11b+Gr1+ BMDCs (%) ([3]; same, mouse 5 of 5): 39.4%; Migration content (%) [4]: 99.141% and 98.012% and 94.753%; Invasion content (%) ([5]; replicate 1): 100.41%; Invasion content (%) ([5]; replicate 2): 88.2%; Invasion content (%) ([5]; replicate 3): 97.02%
P-BS: HPMA copolymer-BS conjugate, ~6 BS grafts per polymer (LGASWHRPDKCCLGYQKRPLPA; not fully specified (residues 11, 12); also: about 6 peptides grafted on HPMA copolymer via cysteine-maleimide thioether links) | -1.375 | -0.0121 | 0.3768 | 1.023 | 0.8503 | 1.779 | 15.43 | 5.4 | 15.3 | 5.1 | 19.3 | 7.1 | 17.3 | 6.3 | 15.33 | 4.2 | 276.4 | 245.1 | 225.1 | 267.3 | Size [6]: 15.7±0.8 nm; Systemic TGF-β ([2]; replicate 5): 241.2; Pulmonary CD11b+Gr1+ BMDCs (%) [3, 7]: 25.1%; Pulmonary CD11b+Gr1+ BMDCs (%) ([3]; same, mouse 2 of 5): 26.4%; Pulmonary CD11b+Gr1+ BMDCs (%) ([3]; same, mouse 3 of 5): 34.2%; Pulmonary CD11b+Gr1+ BMDCs (%) ([3]; same, mouse 4 of 5): 28.9%; Pulmonary CD11b+Gr1+ BMDCs (%) ([3]; same, mouse 5 of 5): 29.8%; Migration content (%) [4]: 52.3% and 41.02% and 47.1%; Invasion content (%) ([5]; replicate 1): 61.3%; Invasion content (%) ([5]; replicate 2): 50.16%; Invasion content (%) ([5]; replicate 3): 42.1%
P-CM2-Cy3: Cy3-labeled P-CM2 (C(HPMA copolymer)YGGEVSALEKEVSALEKKNSALEKEVSALEKEVSALEK; also: Cy3 label on conjugate, position not given here) |  |  |  |  |  |  |  |  |  |  |  |  |  |  |  |  |  |  |  |  | Size [6]: 20.4±0.5 nm
